Measurements from patent US20070166710A1, “Methods for inhibiting adipogenesis and for treating type 2 diabetes” (priority 2003, published 2007).
Residue numbers refer to the chain shown, from its start.

How the values were obtained:
Foxa-2 (transfected) = target: T1, Foxa-2 (transfected) (UniProt P32182); test: cell_activity
T1 sequence: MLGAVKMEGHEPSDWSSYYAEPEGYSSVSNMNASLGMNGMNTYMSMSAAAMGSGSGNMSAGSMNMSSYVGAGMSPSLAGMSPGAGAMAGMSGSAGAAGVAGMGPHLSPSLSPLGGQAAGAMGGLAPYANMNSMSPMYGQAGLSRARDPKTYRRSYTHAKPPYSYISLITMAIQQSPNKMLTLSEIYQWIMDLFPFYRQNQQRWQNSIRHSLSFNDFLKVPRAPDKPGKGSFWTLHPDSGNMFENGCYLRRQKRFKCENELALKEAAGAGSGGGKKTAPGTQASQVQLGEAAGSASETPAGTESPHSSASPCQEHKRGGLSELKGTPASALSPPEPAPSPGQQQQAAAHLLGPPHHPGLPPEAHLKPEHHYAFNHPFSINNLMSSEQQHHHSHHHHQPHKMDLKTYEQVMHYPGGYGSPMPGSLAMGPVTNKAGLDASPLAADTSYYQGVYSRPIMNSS

Foxa-2 activity = test: Transactivation assay, HepG2 cells transfected with Foxa-2 and pPepck-Luc or p6xCdx-TkLuc; assay type: cell-based, rat; conditions: coincubation, inhibitor 10 μM, insulin 100 nM
Experimental: Transfections and Transactivation assay. HepG2 cells were grown to 60-70% confluence in a 24-well dish and transfected with 50 ng of each reporter gene (p6xCdx-TkLuc or pPEPCK-Luc), pCMV-β-Gal as internal reference and the expression vectors for wildtype or mutant Foxa-1 and Foxa-2 and human Akt1/Akt2 using the transfection reagent Fugene6 (Roche). Cells were grown for 48 hours and luciferase activity was measured using the Luciferase Detection System (Promega). Luciferase was normalized for transfection efficiency by β-galactosidase activity.
To analyze whether Foxa-2 activity is regulated by insulin, HepG2 cells were transfected with a Foxa-2 expression vector and either plasmid pPepck-Luc or p6xCdx-TkLuc that contain a 621 bp promoter framnent of the human PEPCK gene or six Foxa-2 binding sites of the Cdx-2 gene upstream of a minimal promoter and the luciferase gene, respectively.

Pepck, G6pc and Igfbp-1 = test: mRNA levels of Foxa-2 target genes in primary hepatocytes (RT-PCR); assay type: cell-based; conditions: inhibitor together with insulin
Experimental: FIGS. 10a-d depict the effect of insulin on Foxa-2 activity. FIG. 10a is a bar graph depicting relative Foxa-2 activity in HepG2 cells transfected with an expression vector for Foxa-2 and […]-Luc (gray bars) or p6xCdx-TkLuc (black bars). Cells were treated with insulin alone or in the presence of Ly294002 or PD98059. FIG. 10b is a bar graph depicting relative Foxa-2 activity in HepG2 cells transfected with p6xCdx-TkLuc and treated with insulin alone or in the presence of Ly294002 or PD98059. […] FIG. 10d is a bar graph depicting relative Foxa-2 activity in HepG2 cells transfected with an expression vector for Foxa-1, Foxa-2, Akt or Akt[…] alone or in combination, using p6xCdx-TkLuc as reporter gene. In all experiments luciferase activity was normalized to β-Gal activity. […] Levels of mRNA were analyzed to determine whether inhibition of Foxa-2 target gene expression by insulin is controlled at a transcriptional or posttranscriptional level. The mRNA levels of Pepck, G6pc and Igfbp-1 in primary hepatocytes that were cultured either in the presence or absence of insulin, PI3-kinase or MAPKK1 inhibitors were measured.

Foxa-2 [1] = test: Immunofluorescence of subcellular distribution of endogenous Foxa-2 in HepG2 cells; assay type: cell-based; conditions: inhibitor in the presence of insulin (50 nM)
Experimental: Immunofluorescence microscopy. Cells were fixed for 30 minutes at room temperature with 2% paraformaldehyde. For immunofluorescent detection of Foxa-1 or Foxa-2, fixed cells were incubated with respective polyclonal antibodies (1:100) (Ruiz i Altaba et al. (1993) Mech. Dev. 44: 91-108) overnight at 4° C. After washing, the cells were treated with anti rabbit IgG secondary antibody linked to Alexa Fluor 488 (Molecular Probes). Immunofluorescent staining was visualized using laser-scanning micrsocopy. To determine whether Akt-induced phosporylation of Foxa-2 has an effect on the subcellular distribution of this transcription factor, the following experiment was performed. HepG2 cells were grown to 60% confluency and endogenous Foxa-1 and Foxa-2 proteins were visualized by immunofluorescence after staining with anti Foxa-1 and Foxa-2 antibodies. Cells were either examined in the absence or presence of insulin (50 nM) and/or Ly294002 or PD98059, and after transfection with either Akt1 or Akt2 expression vectors (FIG. 5B). […] Treatment of cells with MAPKK1 inhibitor PD98059 had no effect on insulin stimulated nuclear exclusion of Foxa-2. The subcellular distribution of Foxa-2 in cells that were stimulated with insulin and expressed a dominant negative form of Akt (Akt[…]) were resistant to nuclear exclusion. […]

[2] = target: T2, GST-Foxa-2 (recombinant, from E. coli BL21, pGEX-4T2) (UniProt P32182)
T2 sequence: T1 sequence

[3] = target: T3, GST-Foxa-2T156A (recombinant, from E. coli BL21, pGEX-4T2) (UniProt P32182)
T3 sequence: T1 sequence with T156A

Foxa-2 expression [4] = test: Foxa-2 expression in primary adipocytes from lean wildtype C57B6 mice, semiquantitative RT-PCR; assay type: cell-based; conditions: 60 hours; leptin 100 ng/ml, TNF-α 5 ng/ml, adiponectin 500 ng/ml, glucagon 100 nM, glucose 20 mmol/L
Experimental: (§1) Total RNA was extracted from cells and EBs using Trizol following manufacturer's instructions (Life Technologies, Inc.). […] The cDNAs provided templates for polymerase chain reactions (PCRs) using specific primers at annealing temperatures ranging between 60 and 65° C. in the presence of dNTPs, [α^-32P]dCTP, and Taq DNA polymerase. […] Primary adipocytes were isolated as described by Rodbell (1964) J. Biol. Chem. 239:375-380. […] (1995) J. Cell. Biochem. 58:435-463. The reaction was stopped by spinning through dinonyl […] oil and the radioactivity quantified by scintillation counting. […] (1995) Am. J. Physiol. 268:[…]-[…]. Fatty acid de novo synthesis was analyzed by saponification of total lipids as described by […] et al. (1978) J. […] Incorporation into lipid glycerol was calculated by subtracting fatty acid radioactive label from total lipid radioactive label. Primary adipocytes were isolated from lean wildtype C57B6 mice and cultured in MEM medium (control) or in the presence of insulin (100 nM; 24 hours and 60 hours, respectively) or rosiglitazone (50 μM), WY14,643 (100 μM), dexametason (1 μM), leptin (100 ng/ml), TNF-α (5 ng/ml), adiponectin (500 ng/ml) and glucagons (100 nM) for 60 hours. Gene expression was measured by semiquantitative RT-PCR. Steady state mRNA levels of Hprt were used as a control and indicate that each lane contains similar amounts of mRNA. Reactions were also assayed in the absence of reverse transcriptase, showing that mRNA was not contaminated with genomic DNA.

Foxa-2 expression [5] = test: Foxa-2 expression in primary adipocytes from ob/ob mice, semiquantitative RT-PCR; assay type: cell-based; conditions: 60 hours
Experimental: as §1, with “ob/ob” for “lean wildtype C57B6”, “μM;” for “nM;”, “dexamethason” for “dexametason”, “TNF-α,” for “TNF-α”, “rnRNA.” for “mRNA.”

Foxa-2 [6] = test: Nuclear Foxa-2 in perfused livers, immunoblotting; assay type: in vivo, mice; conditions: liver perfusion experiments

6xCdx-TkLuc (six Foxa-2 sites of the Cdx-2 gene)
activity (fold activation) (Foxa-2 (transfected); HepG2, decreased by insulin or Akt): 5

COc1cccc(-c2cc(=O)c3ccccc3o2)c1N [PD98059, reference compound]
insulin mediated decrease of Foxa-2 activity (Foxa-2 activity): did not influence
mRNA levels of Pepck, G6pc and Igfbp-1 (Pepck, G6pc and Igfbp-1): significantly reduced
subcellular localization of endogenous Foxa-2 / insulin stimulated nuclear exclusion (Foxa-2 [1]): no effect

HA-Akt (human Akt1 fused to an N-terminal HA-tag, expressed from pCMV-HA-Akt)
phosphorylation in an in vitro kinase assay ([gamma-32P]-ATP, autoradiography) [2]: wildtype Foxa-2 was phosphorylated by either Akt or myrAkt
phosphorylation in an in vitro kinase assay ([gamma-32P]-ATP, autoradiography) [3]: no phosphorylation could be observed using Foxa-2T156A protein as substrate

IL6: factor with effects on adipocyte differentiation and metabolism
De novo expression of Foxa-2 (Foxa-2 expression [4]): could not be induced
Foxa-2 expression (Foxa-2 expression [5]): unable to raise

PEPCK promoter (621 bp) luciferase reporter
activity (fold activation) (Foxa-2 (transfected); HepG2, about 6-fold in FIG. 11c): 5

Pref-1 promoter (1.3 kb) luciferase reporter
activity (fold activation) (Foxa-2 (transfected); 3T3-L1 luciferase reporter): 6

Pref-1 promoter reporter, upstream Foxa element deleted
activity (% reduction of activity) (Foxa-2 (transfected); 3T3-L1 luciferase reporter): 50

TNF-α
De novo expression of Foxa-2 (Foxa-2 expression [4]): could not be induced
Foxa-2 expression (Foxa-2 expression [5]): unable to raise

constitutively active Akt, HA-tagged (pCMV-HA-myrAkt)
phosphorylation in an in vitro kinase assay ([gamma-32P]-ATP, autoradiography) [2]: wildtype Foxa-2 was phosphorylated by either Akt or myrAkt
phosphorylation in an in vitro kinase assay ([gamma-32P]-ATP, autoradiography) [3]: no phosphorylation could be observed using Foxa-2T156A protein as substrate

glucagon: hormone tested on Foxa-2 expression and nuclear localization
De novo expression of Foxa-2 (Foxa-2 expression [4]): could not be induced
Foxa-2 expression (Foxa-2 expression [5]): unable to raise
Foxa-2 nuclear localization (Foxa-2 [6]): does not affect

leptin: factor with effects on adipocyte differentiation and metabolism
De novo expression of Foxa-2 (Foxa-2 expression [4]): could not be induced
Foxa-2 expression (Foxa-2 expression [5]): unable to raise

B1: adiponectin: factor with effects on adipocyte differentiation and metabolism (protein, UniProt Q15848 19-244, looked up)
Adiponectin: ETTTQGPGVLLPLPKGACTGWMAGIPGHPGHNGAPGRDGRDGTPGEKGEKGDPGLIGPKGDIGETGVPGAEGPRGFPGIQGRKGEPGEGAYVYRSAFSVGLETYVTIPNMPIRFTKIFYNQQNHYDGSTGKFHCNIPGLYYFAYHITVYMKDVKVSLFKKDKAMLFTYDQYQENNVDQASGSVLLHLEVGDQVWLQVYGEGERNGLYADNDNDSTFTGFLLYHDTN
De novo expression of Foxa-2 (Foxa-2 expression [4]): could not be induced
Foxa-2 expression (Foxa-2 expression [5]): unable to raise
